The values below come from BindingDB's records for doi:10.1021/jm049581j (Purdue University, 2005).

For this experiment, the target named is T1, Gag-Pol polyprotein [489-587] (Human immunodeficiency virus 1, UniProt P04585).
T1 construct: 489-587
Nature of the experiment: Inhibitory concentration against human immunodeficiency virus-1 protease; (Dimerization inhibitor).

On to `CC[C@@H](C)[C@H](NC(=O)[C@H](CCC(N)=O)NC(=O)C1CCCN1C(=O)CCCCCCCCCCCCCCC(=O)N[C@@H](CO)C(=O)N[C@H](C(=O)N[C@@H](CC(C)C)C(=O)N[C@@H](CC(N)=O)C(=O)N[C@@H](Cc1ccccc1)C(=O)O)[C@H](C)O)C(=O)N[C@H](C(=O)N[C@@H](CC(C)C)C(=O)N[C@@H](Cc1c[nH]c2ccccc12)C(=O)O)[C@H](C)O` (some centres not stated), for which it took 350 nM to reach half-maximal inhibition (IC50) and the Ki (usually a measure of affinity in units of concentration, obtained from inhibition or displacement) amounted to 220 nM.
